Measured values as given in patent US6403343B2, “Method of producing a taxane-type diterpene and a method of obtaining cultured cells which produce the taxane-type dilterpene at a high rate” (Mitsui Chemicals, Inc., priority 1993, dated 2002).

What was measured:
[1] = tested on: cultured cells of Taxus baccata LINN; assay: Taxane-type diterpene yield and cell yield, shake culture of Taxus baccata cells with a jasmonic acid (or jasmone) added; assay type: cell-based; details: for cell yield / yield of baccatin III / yield of cephalomannine / yield of taxol: 7 more days
[2] = tested on: cultured cells of Taxus baccata LINN; assay: Growth rate and taxane yield, 21-day shake culture of Taxus baccata cells with heavy metal compound, amine, antiethylene agent or Ethrel added; assay type: cell-based; details: 21 days
Experimental: (§1) One gram (fresh weight) of the callus was inoculated to an Erlenmeyer flask containing 20 ml of liquid Woody Plant Medium to which the above-mentioned component was added to give the same concentration and shake culture was carried out with a rotary shaker (amplification of 25 mm, 100 rpm) and the callus was subcultured in every 21 days to accelerate the growth rate thereof.
Then shake culture was carried out at 25° C. for 21 days.
(§2) After completing the culture, cultured cells of Taxus baccata LINN were harvested by filtration and lyophilized, then the dry weight was measured to obtain the growth rate thereof. Taxane-type diterpenes were extracted from the dried callus with methanol and the like, and they were determined by comparing with standard taxol, cephalomannine, and baccatin III using high performance liquid chromatography to measure the yields of the taxane-type diterpenes.
as §1
One gram (fresh weight) of the cultured cells thus obtained was inoculated to an Erlenmeyer flask containing 20 ml of liquid Woody Plant Medium to which the above-mentioned component had been added to give the same concentration, then spermidine was added to it as amine to give the final concentration of 10^−9M-1M. Then shake culture was carried out at 25° C. for 21 days.
as §2, with “cells” for “callus”, “diterpene.” for “diterpenes.”
as §1, with “component had been” for “component was”
One gram (fresh weight) of the cultured cells thus obtained was inoculated to an Erlenmeyer flask containing 20 ml of liquid Woody Plant Medium to which the above-mentioned component had been added to give the same concentration, and shake culture was carried out at 25° C. for 14 days.

Compound: CC/C=C\C[C@H]1C(=O)CC[C@@H]1CC(=O)O [jasmonic acid]
- cell yield ([1]; 0.01 μM added on 14th day): 12.2 g/L
- yield of baccatin III ([1]; 0.01 μM added on 14th day): 0.3 mg/L
- yield of cephalomannine ([1]; 0.01 μM added on 14th day): 0.6 mg/L
- yield of taxol ([1]; 0.01 μM added on 14th day): 2.2 mg/L
- cell yield ([1]; 0.1 μM added on 14th day): 12.2 g/L
- yield of baccatin III ([1]; 0.1 μM added on 14th day): 0.3 mg/L
- yield of cephalomannine ([1]; 0.1 μM added on 14th day): 0.6 mg/L
- yield of taxol ([1]; 0.1 μM added on 14th day): 3.4 mg/L
- cell yield ([1]; 1 μM added on 14th day): 11.6 g/L
- yield of baccatin III ([1]; 1 μM added on 14th day): 0.3 mg/L
- yield of cephalomannine ([1]; 1 μM added on 14th day): 0.8 mg/L
- yield of taxol ([1]; 1 μM added on 14th day): 5.9 mg/L
- cell yield ([1]; 10 μM added on 14th day): 11.5 g/L
- yield of baccatin III ([1]; 10 μM added on 14th day): 0.5 mg/L
- yield of cephalomannine ([1]; 10 μM added on 14th day): 2.6 mg/L
- yield of taxol ([1]; 10 μM added on 14th day): 8.3 mg/L
- cell yield ([1]; 50 μM added on 14th day): 11.4 g/L
- yield of baccatin III ([1]; 50 μM added on 14th day): 2.5 mg/L
- yield of cephalomannine ([1]; 50 μM added on 14th day): 2.2 mg/L
- yield of taxol ([1]; 50 μM added on 14th day): 10.2 mg/L
- cell yield ([1]; 100 μM added on 14th day): 10.3 g/L
- yield of baccatin III ([1]; 100 μM added on 14th day): 7.2 mg/L
- yield of cephalomannine ([1]; 100 μM added on 14th day): 3.0 mg/L
- yield of taxol ([1]; 100 μM added on 14th day): 12.8 mg/L
- cell yield ([1]; 250 μM added on 14th day): 10.1 g/L
- yield of baccatin III ([1]; 250 μM added on 14th day): 10.6 mg/L
- yield of cephalomannine ([1]; 250 μM added on 14th day): 2.7 mg/L
- yield of taxol ([1]; 250 μM added on 14th day): 14.7 mg/L
- cell yield ([1]; 500 μM added on 14th day): 10.2 g/L
- yield of baccatin III ([1]; 500 μM added on 14th day): 12.0 mg/L
- yield of cephalomannine ([1]; 500 μM added on 14th day): 1.1 mg/L
- yield of taxol ([1]; 500 μM added on 14th day): 11.1 mg/L
- cell yield ([1]; 1000 μM added on 14th day): 6.7 g/L
- yield of baccatin III ([1]; 1000 μM added on 14th day): 1.2 mg/L
- yield of cephalomannine ([1]; 1000 μM added on 14th day): 0.5 mg/L
- yield of taxol ([1]; 1000 μM added on 14th day): 1.2 mg/L

Compound: NCCCNCCCCNCCCN [spermin]
- growth rate ([2]; 1 M added at start): 1.0 times
- total yield of taxane ([2]; 1 M added at start): 0.22 mg/L
- yield of baccatin III ([2]; 1 M added at start): 0.10 mg/L
- yield of cephalomannine ([2]; 1 M added at start): 0.04 mg/L
- yield of taxol ([2]; 1 M added at start): 0.08 mg/L
- growth rate ([2]; 10^−1 M added at start): 1.4 times
- total yield of taxane ([2]; 10^−1 M added at start): 1.29 mg/L
- yield of baccatin III ([2]; 10^−1 M added at start): 0.39 mg/L
- yield of cephalomannine ([2]; 10^−1 M added at start): 0.32 mg/L
- yield of taxol ([2]; 10^−1 M added at start): 0.58 mg/L
- growth rate ([2]; 10^−2 M added at start): 2.1 times
- total yield of taxane ([2]; 10^−2 M added at start): 3.30 mg/L
- yield of baccatin III ([2]; 10^−2 M added at start): 0.70 mg/L
- yield of cephalomannine ([2]; 10^−2 M added at start): 1.54 mg/L
- yield of taxol ([2]; 10^−2 M added at start): 1.06 mg/L
- growth rate ([2]; 10^−3 M added at start): 2.0 times
- total yield of taxane ([2]; 10^−3 M added at start): 8.22 mg/L
- yield of baccatin III ([2]; 10^−3 M added at start): 0.76 mg/L
- yield of cephalomannine ([2]; 10^−3 M added at start): 2.68 mg/L
- yield of taxol ([2]; 10^−3 M added at start): 4.78 mg/L
- growth rate ([2]; 10^−4 M added at start): 2.3 times
- total yield of taxane ([2]; 10^−4 M added at start): 11.96 mg/L
- yield of baccatin III ([2]; 10^−4 M added at start): 1.64 mg/L
- yield of cephalomannine ([2]; 10^−4 M added at start): 4.09 mg/L
- yield of taxol ([2]; 10^−4 M added at start): 6.23 mg/L
- growth rate ([2]; 10^−5 M added at start): 2.1 times
- total yield of taxane ([2]; 10^−5 M added at start): 17.18 mg/L
- yield of baccatin III ([2]; 10^−5 M added at start): 2.09 mg/L
- yield of cephalomannine ([2]; 10^−5 M added at start): 5.63 mg/L
- yield of taxol ([2]; 10^−5 M added at start): 9.46 mg/L
- growth rate ([2]; 10^−6 M added at start): 2.4 times
- total yield of taxane ([2]; 10^−6 M added at start): 6.89 mg/L
- yield of baccatin III ([2]; 10^−6 M added at start): 0.89 mg/L
- yield of cephalomannine ([2]; 10^−6 M added at start): 1.97 mg/L
- yield of taxol ([2]; 10^−6 M added at start): 4.03 mg/L
- growth rate ([2]; 10^−7 M added at start): 2.4 times
- total yield of taxane ([2]; 10^−7 M added at start): 4.17 mg/L
- yield of baccatin III ([2]; 10^−7 M added at start): 0.68 mg/L
- yield of cephalomannine ([2]; 10^−7 M added at start): 1.32 mg/L
- yield of taxol ([2]; 10^−7 M added at start): 2.17 mg/L
- growth rate ([2]; 10^−8 M added at start): 2.3 times
- total yield of taxane ([2]; 10^−8 M added at start): 3.42 mg/L
- yield of baccatin III ([2]; 10^−8 M added at start): 0.62 mg/L
- yield of cephalomannine ([2]; 10^−8 M added at start): 1.01 mg/L
- yield of taxol ([2]; 10^−8 M added at start): 1.79 mg/L
- growth rate ([2]; 10^−9 M added at start): 2.9 times
- total yield of taxane ([2]; 10^−9 M added at start): 1.86 mg/L
- yield of baccatin III ([2]; 10^−9 M added at start): 0.50 mg/L
- yield of cephalomannine ([2]; 10^−9 M added at start): 0.64 mg/L
- yield of taxol ([2]; 10^−9 M added at start): 0.72 mg/L

Compound: methyl jasmone [reference compound]
- taxol inducing activity ([1]; see Comparative Example No. 24): low
